For the experiment, the target named is T1, Fatty-acid amide hydrolase 1 (Homo sapiens, UniProt O00519).
T1 sequence (O00519 whole entry): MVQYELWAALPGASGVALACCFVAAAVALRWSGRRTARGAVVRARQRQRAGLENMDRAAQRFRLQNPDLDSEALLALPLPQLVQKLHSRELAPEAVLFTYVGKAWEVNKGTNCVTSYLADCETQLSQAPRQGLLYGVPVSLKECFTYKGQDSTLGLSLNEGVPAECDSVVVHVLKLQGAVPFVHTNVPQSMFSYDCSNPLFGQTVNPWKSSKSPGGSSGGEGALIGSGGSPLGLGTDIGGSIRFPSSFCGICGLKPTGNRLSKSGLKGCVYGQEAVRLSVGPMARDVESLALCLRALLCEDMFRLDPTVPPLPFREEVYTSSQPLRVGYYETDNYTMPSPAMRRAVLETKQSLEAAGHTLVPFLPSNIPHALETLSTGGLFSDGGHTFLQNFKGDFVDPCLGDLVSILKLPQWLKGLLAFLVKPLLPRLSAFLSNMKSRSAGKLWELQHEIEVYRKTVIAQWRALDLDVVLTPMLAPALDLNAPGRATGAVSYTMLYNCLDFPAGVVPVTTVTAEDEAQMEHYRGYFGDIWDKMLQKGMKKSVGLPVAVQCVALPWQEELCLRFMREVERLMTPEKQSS
The experiment in a line: FAAH Assay: Enzyme activity was demonstrated in a radioenzymatic test based on measuring the product of hydrolysis (ethanolamine [3]H) of anandamide [ethanolamine 1-^3H] (American Radiolabeled Chemicals; 1 mCi/ml) with FAAH (Life Sciences (1995), 56, 1999-2005 and Journal of Pharmacology and Experimented Therapeutics (1997), 283, 729-734), Analytical. Biochemistry (2003), 318, 270-5. In ….

One may read the IC50 as the concentration at which inhibition is half-maximal. Higher therefore signals a need for much substance.

For the compound `CN1CCN(CCOC(=O)N2CCC(c3nc(-c4ccc([S+](C)[O-])cc4)c(Sc4ccc(Cl)cn4)o3)CC2)CC1` (configuration not stated), half-maximal inhibition (IC50) was put at 3.09 µM. On to `C[N+]1(C)CCN(c2ccc(-c3nc(C4CCOCC4)oc3Sc3ccc(Cl)cc3)cn2)CC1`, for which the IC50 worked out at 9.15 µM.

The record behind these values is ChEMBL document CHEMBL3886380, “Oxazole derivatives useful as modulators of FAAH” (2015).
